Tested on: mixture of 9 types of Fusobacteria
Assay: ELISA binding affinity of selected M13 bacteriophage clones to Fusobacteria (FIG. 4D)
Design: species or system Fusobacterium nucleatum
Settings: M13 bacteriophage displaying the peptide, plate coated with Fusobacteria, M13-HRP antibody, TMB, absorbance at OD450
Method: A mixture of 9 types of Fusobacteria or each of the 9 types of Fusobacteria was coated on a plate, and a blocking reaction was performed using a 5% BSA solution to prevent non-specific binding. Each selected M13 bacteriophage was reacted on the plate coated with Fusobacteria. The plate was washed three times with phosphate buffer solution containing 0.1% Tween 20, and then reacted with an M13-HRP antibody. The reaction plate was washed three times with phosphate buffer solution containing 0.1% Tween 20 and reacted using a TMB color solution. The reaction was stopped with 1 M sulfuric acid (H2SO4), and the absorbance was measured at OD450 to compare the binding affinity.

## PPWLADI [SEQ ID NO: 81]
  binding affinity to Fusobacteria (ELISA): highest binding affinity
